Data on three molecules can be found in patent EP0029082B1, “1-Benzylated ergometrine derivatives, process for their preparation and pharmaceutical compositions containing them” (VEB Arzneimittelwerk Dresden, priority 1979, dated 1981).

The test system of this experiment is Serotoninödem an der Ratte. Briefly: Antiserotonin effect on serotonin-induced oedema in the rat (set-up according to Winter, Risley and Nuss). The class given is in vivo. Particulars: dose 0,005 mg/kg i. p., mean inhibition versus control group, values statistically significant for A and B; for prozentuale Hemmung nach Serotoningabe (%) nach 30 min: 30 min after serotonin; for prozentuale Hemmung nach Serotoningabe (%) nach 90 min: 90 min after serotonin; for prozentuale Hemmung nach Serotoningabe (%) nach 150 min: 150 min after serotonin; for prozentuale Hemmung nach Serotoningabe (%) nach 210 min: 210 min after serotonin; for prozentuale Hemmung nach Serotoningabe (%) nach 270 min: 270 min after serotonin.

The structures appear in SMILES notation.

As to `CC[C@@H](CO)NC(=O)[C@@H]1C=C2c3cccc4c3c(cn4C)C[C@H]2N(C)C1` [Methysergid, reference compound], the “prozentuale Hemmung nach Serotoningabe (%) nach 30 min” value is on record as 68%, the “prozentuale Hemmung nach Serotoningabe (%) nach 90 min” value worked out at 60%, the “prozentuale Hemmung nach Serotoningabe (%) nach 150 min” value amounted to 36% and the “prozentuale Hemmung nach Serotoningabe (%) nach 210 min” value is on record as 34%. Besides, the “prozentuale Hemmung nach Serotoningabe (%) nach 270 min” value is given as 46%.
For `C[C@@H](CO)NC(=O)[C@@H]1C=C2c3cccc4c3c(cn4Cc3cccc(F)c3)C[C@H]2N(C)C1` [Verb. A, 1-(3'-Fluorbenzyl)-ergometrindimaleinat], the “prozentuale Hemmung nach Serotoningabe (%) nach 30 min” value stood at 44%, the “prozentuale Hemmung nach Serotoningabe (%) nach 90 min” value is recorded as 50%, the “prozentuale Hemmung nach Serotoningabe (%) nach 150 min” value was found to be 36% and the “prozentuale Hemmung nach Serotoningabe (%) nach 210 min” value is 55%. Besides, the “prozentuale Hemmung nach Serotoningabe (%) nach 270 min” value is given as 56%.
For `C[C@@H](CO)NC(=O)[C@@H]1C=C2c3cccc4c3c(cn4Cc3ccc(Cl)cc3)C[C@H]2N(C)C1` [Verb. B, 1-(4'-Chlorbenzyl)-ergometrindimaleinat], the “prozentuale Hemmung nach Serotoningabe (%) nach 30 min” value is 44%, the “prozentuale Hemmung nach Serotoningabe (%) nach 90 min” value came to 45%, the “prozentuale Hemmung nach Serotoningabe (%) nach 150 min” value turned out to be 46% and the “prozentuale Hemmung nach Serotoningabe (%) nach 210 min” value was 61%. Moreover, the “prozentuale Hemmung nach Serotoningabe (%) nach 270 min” value was 58%.
